Test results from patent US20150119410A1, “BIOMARKERS OF RESPONSE TO NAE INHIBITORS” (MILLENNIUM PHARMACEUTICALS, INC., priority 2011, published 2015).

Key:
Format in all cases: cell-based
HCT-116 TP53 +/+ cells = assay: ATPlite viability assay, isogenic HCT-116 pair; details: Homo sapiens, HCT-116 TP53 +/+ (wild-type), 72 h, read-out: LC50 (the source's name)
Procedure: (§1) Paired isogenic HCT-116 cell lines that were either wild-type (+/+) or null (−/−) for p53 expression (HD PAR-018 and HD 104-001, respectively, Horizon Discovery Ltd) were seeded in separate 384-well plates and then treated the following day with a titration of MLN4924 triplicate, and incubated for 24, 36, 48 or 72 h, with seeding densities of 1600, 1200, 800, and 400 cells/well, respectively. Following compound incubation, viability of HCT-116 cells was assessed by ATPlite assay (Perkin Elmer) according to the manufacturer's instructions using the LEADseeker imaging system (GE Healthcare).

HCT-116 TP53 −/− cells = assay: ATPlite viability assay, isogenic HCT-116 pair
Procedure: as §1

CAL-62 = assay: Cell line panel 2 high-content screen; details: Homo sapiens; CAL-62 (thyroid); 72 hours
Procedure: (§2) To support clinical development and identify potential biomarkers of tumor sensitivity or resistance, two large cancer cell line panels (Panel 1, N=653 (McDermott et al. (2007) PNAS 104:19936-19941); Panel 2, N=240 (O'Day et al. (2010) Fourth AACR International Conference on Molecular Diagnostics in Cancer Therapeutic Development)) were treated with MLN4924 and cell viability data (IC50, EC50, and POC—Percentage of Control) were generated.
(§3) Panel 2 (Ricerca Biosciences, Inc., Bothell, Wash.). MLN4924 was added in half-log dilutions for 10 concentrations and treated for 72 hours. High-content cell screening by fluorescence microscopy included image analysis to generate several types of data. Results included EC50 values (after measurement of cell numbers, the EC50 concentration was calculated from the inflection point of a curve of percent of control (POC) against log of MLN4924 concentration), IC50 values (from the POC-log MLN4924 plot, IC50 is the concentration at 50% maximal possible response), apoptosis (measurement of activation of caspase 3 plotted against log of MLN4924 concentration, determined as the concentration for >5 fold induction), and mitotic activity (determined by measuring the fold increase of phospho-histone 3). A comparison of EC50 to IC50 (FIG. 3) allowed assignment of cell lines to sensitive, insensitive or resistant. Final identification of a cell line as sensitive or resistant was based on the EC50 values. The cutoff for sensitivity is a median EC50 of less than the median value of all POC's recorded in the panel (<0.36), borderline sensitivity was associated with median EC50 of 0.36 to 1.67 and insensitive or resistant cell lines were identified by EC50 greater than the 3rd quartile of all POC's in the panel (>1.67).

SKUT1 = assay: Cell line panel 2 high-content screen; details: Homo sapiens, SK-UT-1; SKUT1 (smooth muscle); 72 hours
Procedure: as §2, §3

HCT-15 = assay: Cell line panel 2 high-content screen; details: Homo sapiens; HCT-15 (intestine); 72 hours
Procedure: as §2, §3

p21 = assay: Western blot of p21 in TP53 −/− HCT-116 cells; details: TP53 −/− HCT-116 cells treated with MLN4924

With `NS(=O)(=O)OC[C@@H]1C[C@@H](n2ccc3c(N[C@H]4CCc5ccccc54)ncnc32)C[C@@H]1O` [MLN4924, ((1S,2S,4R)-4-{4-[(1S)-2,3-dihydro-1H-inden-1-ylamino]-7H-pyrrolo[2,3-d]pyrimidin-7-yl}-2-hydroxycyclopentyl)methyl sulphamate] the CC50 (HCT-116 TP53 +/+ cells) was 21 ± 1 nM, the CC50 (HCT-116 TP53 −/− cells; Homo sapiens, HCT-116 TP53 −/− (null), 72 h, ATPlite, read-out: LC50 (the source's name)) was 74 ± 5 nM and the “cell death at the highest drug concentrations” value (HCT-116 TP53 −/− cells; TP53 −/− versus TP53 +/+ HCT-116, 24, 36, and 48 h) was “less cell death”. It also gave an EC50 (CAL-62) of 83.7 nM, an EC50 (SKUT1) of 85.6 nM and an EC50 (HCT-15) of 836 nM. For the same molecule, the “p21 level (Western blots)” value (p21) was “still up-regulated”.
